Experimental data published in patent US9751874B2, “Hydroxy containing FXR (NR1H4) modulating compounds” (Gilead Sciences, Inc., priority 2014, dated 2017).
pEC50: −log10 of the molar value.

Tests used:
[1] = biological target: T1, FXR ligand binding domain (Homo sapiens, UniProt Q96RI1); test: Mammalian One Hybrid (M1H) assay, Gal4 promoter driven transactivation in HEK293 cells; format: cell-based; conditions: Gal4-FXR-LBD luciferase reporter, 16 h
T1 construct: expressed in transfected cells; host or cells: HEK293 cells, transiently transfected with pCMV-BD-FXR-LBD, pFR-Luc and pRL-CMV
T1 sequence (Q96RI1 187-472 isoform Q96RI1-2): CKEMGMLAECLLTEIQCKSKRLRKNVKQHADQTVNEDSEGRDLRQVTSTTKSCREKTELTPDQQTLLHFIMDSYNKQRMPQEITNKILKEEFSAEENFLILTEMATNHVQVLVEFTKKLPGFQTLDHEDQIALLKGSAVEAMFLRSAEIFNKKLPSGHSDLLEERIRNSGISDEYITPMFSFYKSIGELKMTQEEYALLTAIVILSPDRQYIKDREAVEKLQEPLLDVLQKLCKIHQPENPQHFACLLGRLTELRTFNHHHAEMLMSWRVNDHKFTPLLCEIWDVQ
Experimental: Mammalian One Hybrid (M1H) Assay
Determination of a ligand mediated Gal4 promoter driven transactivation to quantify ligand binding mediated activation of FXR was performed as follows: The cDNA part encoding the FXR ligand binding domain was cloned into vector pCMV-BD (Stratagene) as a fusion to the yeast GAL4 DNA binding domain under the control of the CMV promoter. The amino acid boundaries of the ligand binding domain were amino acids 187-472 of Database entry NM_005123 (RefSeq). The plasmid pFR-Luc (Stratagene) was used as the reporter plasmid, containing a synthetic promoter with five tandem repeats of the yeast GAL4 binding sites, driving the expression of the Photinus pyralis (American firefly) luciferase gene as the reporter gene. In order to improve experimental accuracy the plasmid pRL-CMV (Promega) was cotransfected. pRL-CMV contains the constitutive CMV promoter, controlling the expression of the Renilla reniformis luciferase. All Gal4 reporter gene assays were done in HEK293 cells (obtained from DSMZ, Braunschweig, Germany) grown in MEM with L-Glutamine and Earle's BSS supplemented with 10% fetal bovine serum, 0.1 mM nonessential amino acids, 1 mM sodium pyruvate, and 100 units Penicilin/[…] per mL at 37° C. in 5% CO2. Medium and supplements were obtained from Invitrogen. For the assay, […] cells were plated per well in 96 well plates in 100 μL per well MEM without Phenol Red and L-Glutamine and with Earle's BSS supplemented with 10% charcoal/dextran treated FBS (HyClone, South Logan, Utah), 0.1 mM nonessential amino acids, 2 mM glutamine, 1 mM sodium pyruvate, and 100 units Penicilin/[…] per mL, incubated at 37° C. in 5% CO2. The following day the cells were >90% confluence. Medium was removed and cells were transiently transfected using 20 μL per well of a OptiMEM—polyethylene-imine-based transfection-reagent (OptiMEM, Invitrogen; Polyethyleneimine, Aldrich Cat No. 40,827-7) including the three plasmids described above. MEM with the same composition as used for plating cells was added 2-4 h after addition of transfection mixture. Then compound stocks, prediluted in MEM were added (final vehicle concentration not exceeding 0.1%). Cells were incubated for additional 16 h before firefly and renilla luciferase activities were measured sequentially in the same cell extract using a Dual-Light-Luciferase-Assay system (Dyer et al., Anal. Biochem. 2000, 282, 158-161). All experiments were done in triplicates.

[2] = biological target: T2, human FXR alpha ligand binding domain (Homo sapiens, UniProt Q96RI1); test: FRET activity assay (ligand mediated cofactor peptide interaction, LANCE); format: biochemical; conditions: GST-FXR-LBD / biotinylated SRC-1 peptide (676-700), read-out: F EC50
T2 construct: made in house; host or cells: E. coli BL21(DE3), vector pDEST15
T2 sequence (Q96RI1 187-472 isoform Q96RI1-2): T1 sequence (Q96RI1 187-472 isoform Q96RI1-2)
Experimental: Determination of a ligand mediated cofactor peptide interaction to quantify ligand binding to the nuclear receptor FXR was performed as follows: Preparation of human FXR alpha ligand binding domain: The human FXRalpha LBD was expressed in E. coli strain BL21(DE3) as an N-terminally GST tagged fusion protein. The DNA encoding the FXR ligand binding domain was cloned into vector pDEST15 (Invitrogen). Expression was under control of an IPTG inducible T7 promoter. The amino acid boundaries of the ligand binding domain were amino acids 187-472 of Database entry NM_005123 (RefSeq). Expression and purification of the FXR-LBD: An overnight preculture of a transformed E. coli strain was diluted 1:20 in LB-Ampicillin medium and grown at 30° C. to an optical density of OD600=0.4-0.6. Gene expression was then induced by addition of 0.5 mM IPTG. Cells were incubated an additional 6 h at 30° C., 180 rpm. Cells were collected by centrifugation (7000×g, 7 min, rt). Per liter of original cell culture, cells were resuspended in 10 mL lysis buffer (50 mM Glucose, 50 mM Tris pH 7.9, 1 mM EDTA and 4 mg/mL lysozyme) and left on ice for 30 min. Cells were then subjected to sonication and cell debris removed via centrifugation (22000×g, 30 min, 4° C.). Per 10 mL of supernatant 0.5 mL prewashed Glutathione 4B sepharose slurry (Qiagen) was added and the suspension kept slowly rotating for 1 h at 4° C. Glutathione 4B sepharose beads were pelleted by centrifugation (2000×g, 15 sec, 4° C.) and washed twice in wash buffer (25 mM Tris, 50 mM KCl, 4 mM MgCl2 and 1M NaCl). The pellet was resuspended in 3 mL elution buffer per liter of original culture (elution buffer: 20 mM Tris, 60 mM KCl, 5 mM MgCl2 and 80 mM glutathione added immediately prior to use as powder). The suspension was left rotating for 15 min at 4° C., the beads pelleted and eluted again with half the volume of elution buffer than the first time. The eluates were pooled and dialysed overnight in 20 mM Hepes buffer (pH 7.5) containing 60 mM KCl, 5 mM MgCl2 as well as 1 mM dithiothreitol and 10% (v/v) glycerol. The protein was analysed by SDS-Page.
The method measures the ability of putative ligands to modulate the interaction between the purified bacterial expressed FXR ligand binding domain (LBD) and a synthetic biotinylated peptide based on residues 676-700 of SRC-1 (LCD2, 676-700). The sequence of the peptide used was B—[…]—COOH where the N-terminus was biotinylated (B). The ligand binding domain (LBD) of FXR was expressed as fusion protein with GST in BL-21 cells using the vector pDEST15. Cells were lysed by sonication, and the fusion proteins purified over glutathione sepharose (Pharmacia) according to the manufacturers instructions. For screening of compounds for their influence on the FXR-peptide interaction, the Perkin Elmer LANCE technology was applied. This method relies on the binding dependent energy transfer from a donor to an acceptor fluorophor attached to the binding partner of interest. For ease of handling and reduction of background from compound fluorescence LANCE technology makes use of generic fluorophore labels and time resolved detection Assays were done in a final volume of 25 μL in a 384 well plate, in a Tris-based buffer (20 mM Tris-HCl pH 7.5; 60 mM KCl, 5 mM MgCl2; 35 ng/μL BSA), containing 20-60 ng/well recombinantly expressed FXR-LBD fused to GST, 200-600 nM N-terminally biotinylated peptide, representing SRC1 aminoacids 676-700, 200 ng/well Streptavidin-xIAPC conjugate (Prozyme) and 6-10 ng/well Eu W1024-antiGST (Perkin Elmer). DMSO content of the samples was kept at 1%. After generation of the assay mix and diluting the potentially FXR modulating ligands, the assay was equilibrated for 1 h in the dark at rt in FIA-plates black 384 well (Greiner). The LANCE signal was detected by a Perkin Elmer VICTOR2VTM Multilabel Counter. The results were visualized by plotting the ratio between the emitted light at 665 and 615 nm. […]

How did the pEC50 [1] turn out when `O=C(O)c1cc2sc([C@]3(O)CC[C@@H](OCc4c(-c5c(Cl)cccc5Cl)noc4C4CC4)CC3)nc2cc1F` [Example 11-20, 2-((1s,4s)-4-((5-Cyclopropyl-3-(2,6-dichlorophenyl)isoxazol-4-yl)methoxy)-1-hydroxycyclohexyl)-5-fluorobenzo[d]thiazole-6-carboxylic acid] was run?
The pEC50 was 5.82.

And the pEC50 [2]?
The pEC50 was 6.74.

How did the pEC50 [1] turn out when `O=C(O)c1cc(F)c2nc([C@]3(O)[C@@H]4CC[C@H]3C[C@H](OCc3c(-c5c(Cl)cccc5Cl)noc3C3CC3)C4)sc2c1` [Example 11-27, 2-((1R,3s,5S,8r)-3-((5-cyclopropyl-3-(2,6-dichlorophenyl)isoxazol-4-yl)methoxy)-8-hydroxybicyclo[3.2.1]octan-8-yl)-4-fluorobenzo[d]thiazole-6-carboxylic acid] was run?
Its pEC50 is 9.00.

And the pEC50 [2]?
Its pEC50 is 8.42.

Which results are given for `O=C(O)c1cc(F)c2nc([C@]3(O)C[C@@H](OCc4c(-c5c(Cl)cccc5Cl)noc4C4CC4)C3)sc2c1` [Example 11-21, 2-((1s,3s)-3-((5-Cyclopropyl-3-(2,6-dichlorophenyl)isoxazol-4-yl)methoxy)-1-hydroxycyclobutyl)-4-fluorobenzo[d]thiazole-6-carboxylic acid]?
pEC50 [1]: 6.51; pEC50 [2]: 7.64

How did the pEC50 [1] turn out when `CC(C)(Cc1cccc([C@]2(O)[C@@H]3CC[C@H]2C[C@H](OCc2c(-c4c(Cl)cccc4Cl)noc2C2CC2)C3)c1)C(=O)O` [Example 11-53, 3-(3-((1R,3s,5S,8r)-3-((5-Cyclopropyl-3-(2,6-dichlorophenyl)isoxazol-4-yl)methoxy)-8-hydroxybicyclo[3.2.1]octan-8-yl)phenyl)-2,2-dimethylpropanoic acid] was run?
Its pEC50 is 6.41.

And the pEC50 [2]?
The pEC50 was 6.63.

`O=C(O)c1ccc2nc([C@]3(O)CC[C@@H](OCc4c(-c5ccccc5C5CC5)noc4C4CC4)CC3)sc2c1` [Example 11-11, 2-((1s,4s)-4-((5-Cyclopropyl-3-(2-cyclopropylphenyl)isoxazol-4-yl)methoxy)-1-hydroxycyclohexyl)benzo[d]thiazole-6-carboxylic acid] was tested. Which pEC50 [1] did it give?
The pEC50 was 5.85.

And the pEC50 [2]?
Its pEC50 is 6.00.

`O=C(O)c1cc(F)c2nc([C@]3(O)[C@@H]4CC[C@H]3C[C@H](OCc3c(-c5c(Cl)c[n+]([O-])cc5Cl)noc3C3CC3)C4)sc2c1` [Example 22, 4-(4-((((1R,3s,5S,8r)-8-(6-Carboxy-4-fluorobenzo[d]thiazol-2-yl)-8-hydroxybicyclo[3.2.1]octan-3-yl)oxy)methyl)-5-cyclopropylisoxazol-3-yl)-3,5-dichloropyridine 1-oxide] was tested. Which pEC50 [1] did it give?
The pEC50 was 6.85.

What about the pEC50 [2] of the same molecule?
Its pEC50 is 8.41.

Which results are given for `O=C(O)c1ccc2nc([C@]3(O)CC[C@@H](OCc4c(C5CC5)cnn4-c4ccccc4OC(F)F)CC3)sc2c1` [Example 11-17, 2-((1s,4s)-4-((4-Cyclopropyl-1-(2-(difluoromethoxy)phenyl)-1H-pyrazol-5-yl)methoxy)-1-hydroxycyclohexyl)benzo[d]thiazole-6-carboxylic acid]?
pEC50 [1]: 5.74; pEC50 [2]: 6.01

Which results are given for `O=C(O)c1ccc([C@]2(O)[C@@H]3CC[C@H]2C[C@H](OCc2c(-c4c(Cl)cccc4Cl)noc2C2CC2)C3)c(F)c1` [Example 11-24]?
pEC50 [1]: 7.85; pEC50 [2]: 8.11

How did the pEC50 [1] turn out when `O=C(O)c1ccnc2ccc([C@]3(O)CC[C@@H](OCc4c(-c5c(Cl)cccc5Cl)noc4C4CC4)CC3)cc12` [Example 30, 6-((1s,4s)-4-((5-Cyclopropyl-3-(2,6-dichlorophenyl)isoxazol-4-yl)methoxy)-1-hydroxycyclohexyl)quinoline-4-carboxylic acid] was run?
Its pEC50 is < 5.52.

What about the pEC50 [2] of the same molecule?
The pEC50 was 6.72.

With `O=C(O)CNC(=O)c1cc(F)c2nc([C@]3(O)[C@@H]4CC[C@H]3C[C@H](OCc3c(-c5c(Cl)cccc5Cl)noc3C3CC3)C4)sc2c1` [Example 38, 2-(2-((1R,3s,5S,8r)-3-((5-Cyclopropyl-3-(2,6-dichlorophenyl)isoxazol-4-yl)methoxy)-8-hydroxybicyclo[3.2.1]octan-8-yl)-4-fluorobenzo[d]thiazole-6-carboxamido)acetic acid] as the molecule, how does the pEC50 [1] read?
Its pEC50 is 5.90.

What about the pEC50 [2] of the same molecule?
The pEC50 was 8.52.

How did the pEC50 [1] turn out when `O=C(O)Cc1ccc(F)c([C@]2(O)CC[C@@H](OCc3c(-c4c(Cl)cccc4Cl)noc3C3CC3)CC2)c1` [Example 11-9, 2-(3-((1s,4s)-4-((5-Cyclopropyl-3-(2,6-dichlorophenyl)isoxazol-4-yl)methoxy)-1-hydroxycyclohexyl)-4-fluorophenyl)acetic acid] was run?
Its pEC50 is 6.92.

What about the pEC50 [2] of the same molecule?
The pEC50 was 7.33.

With `O=C(O)c1cc(F)c2nc([C@]3(O)[C@@H]4CC[C@H]3C[C@H](OCc3c(-c5c(Cl)cncc5Cl)noc3C3CC3)C4)sc2c1` [Example 11-29, 2-((1R,3s,5S,8r)-3-((5-cyclopropyl-3-(3,5-dichloropyridin-4-yl)isoxazol-4-yl)methoxy)-8-hydroxybicyclo[3.2.1]octan-8-yl)-4-fluorobenzo[d]thiazole-6-carboxylic acid] as the molecule, how does the pEC50 [1] read?
Its pEC50 is 8.24.

And the pEC50 [2]?
The pEC50 was 8.37.

`O=C(O)c1ccc2nc([C@]3(O)CC[C@@H](OCc4c(C5CCC6(CC5)CC6)noc4C4CC4)CC3)sc2c1` [Example 11-3, 2-((1s,4s)-4-((5-Cyclopropyl-3-(spiro[2.5]octan-6-yl)isoxazol-4-yl)methoxy)-1-hydroxycyclohexyl)benzo[d]thiazole-6-carboxylic acid] was tested. Which pEC50 [1] did it give?
Its pEC50 is 5.68.

And the pEC50 [2]?
Its pEC50 is 5.89.
